Patent US20260158011A1 (Achieve Life Sciences, Inc., priority 2023, published 2026)
Read-outs that look alike come from different tables or passages of the source.

Test system: adult e-cigarette users
Settings: for Saliva Cotinine Actual Value, Mean / Saliva Cotinine Actual Value, Median / Saliva Cotinine Change from Baseline, Mean / Saliva Cotinine Change from Baseline, Median: 12 Weeks arm, All Randomized Set; for Saliva Cotinine Change from Baseline, LS Means / Saliva Cotinine Change from Baseline, LS Means Difference from Placebo: repeated-measures ANOVA
Excerpt: A second measurement consisted of biochemically verified continuous vaping abstinence at any time during treatment, with vaping abstinence at Week 3-6 or Week 6-9 for of cytisinicline treatment vs placebo. 7-day point prevalence rates were compared for vaping abstinence (Week 2 to 12) (FIG. 62). An additional measurement included reduction in daily vaping as measured by cotinine, where cytisinicline treatment vs placebo for a reduction in nicotine vaping using weekly quantitative cotinine levels from Week 2 to Week 12. Safety was assessed by adverse effects and serious adverse effects, considering number, severity, and attribution to study drug.
Cotinine: The data were analyzed by visit and also using a repeated measures model. […] Cotinine values less than 1 were converted to 1 due to asymmetry.

Compound: O=c1cccc2n1C[C@@H]1CNC[C@H]2C1 [cytisine, (−)-Cytisine]
- Saliva Cotinine Actual Value, Mean (Week 2): 133.598 ng/mL
- Saliva Cotinine Actual Value, Median (Week 2): 70.200 ng/mL
- Saliva Cotinine Change from Baseline, Mean (Week 2): -185.522 ng/mL
- Saliva Cotinine Change from Baseline, Median (Week 2): -182.015 ng/mL
- Saliva Cotinine Change from Baseline, LS Means (Week 2): -181.306 ng/mL
- Saliva Cotinine Change from Baseline, LS Means Difference from Placebo (Week 2): -32.506 ng/mL
- Saliva Cotinine Actual Value, Mean (Week 3): 112.224 ng/mL
- Saliva Cotinine Actual Value, Median (Week 3): 2.495 ng/mL
- Saliva Cotinine Change from Baseline, Mean (Week 3): -210.563 ng/mL
- Saliva Cotinine Change from Baseline, Median (Week 3): -210.500 ng/mL
- Saliva Cotinine Change from Baseline, LS Means (Week 3): -205.329 ng/mL
- Saliva Cotinine Change from Baseline, LS Means Difference from Placebo (Week 3): -72.832 ng/mL
- Saliva Cotinine Actual Value, Mean (Week 4): 112.055 ng/mL
- Saliva Cotinine Actual Value, Median (Week 4): 1.710 ng/mL
- Saliva Cotinine Change from Baseline, Mean (Week 4): -206.833 ng/mL
- Saliva Cotinine Change from Baseline, Median (Week 4): -203.500 ng/mL
- Saliva Cotinine Change from Baseline, LS Means (Week 4): -202.672 ng/mL
- Saliva Cotinine Change from Baseline, LS Means Difference from Placebo (Week 4): -74.090 ng/mL
- Saliva Cotinine Actual Value, Mean (Week 5): 111.201 ng/mL
- Saliva Cotinine Actual Value, Median (Week 5): 1.565 ng/mL
- Saliva Cotinine Change from Baseline, Mean (Week 5): -204.721 ng/mL
- Saliva Cotinine Change from Baseline, Median (Week 5): -187.000 ng/mL
- Saliva Cotinine Change from Baseline, LS Means (Week 5): -201.526 ng/mL
- Saliva Cotinine Change from Baseline, LS Means Difference from Placebo (Week 5): -83.364 ng/mL
- Saliva Cotinine Actual Value, Mean (Week 6): 123.705 ng/mL
- Saliva Cotinine Actual Value, Median (Week 6): 1.480 ng/mL
- Saliva Cotinine Change from Baseline, Mean (Week 6): -199.608 ng/mL
- Saliva Cotinine Change from Baseline, Median (Week 6): -168.500 ng/mL
- Saliva Cotinine Change from Baseline, LS Means (Week 6): -196.960 ng/mL
- Saliva Cotinine Change from Baseline, LS Means Difference from Placebo (Week 6): -79.952 ng/mL
- Saliva Cotinine Actual Value, Mean (Week 7): 133.054 ng/mL
- Saliva Cotinine Actual Value, Median (Week 7): 0 ng/mL
- Saliva Cotinine Change from Baseline, Mean (Week 7): -181.605 ng/mL
- Saliva Cotinine Change from Baseline, Median (Week 7): -184.000 ng/mL
- Saliva Cotinine Change from Baseline, LS Means (Week 7): -179.597 ng/mL
- Saliva Cotinine Change from Baseline, LS Means Difference from Placebo (Week 7): -49.309 ng/mL
- Saliva Cotinine Actual Value, Mean (Week 8): 125.966 ng/mL
- Saliva Cotinine Actual Value, Median (Week 8): 0 ng/mL
- Saliva Cotinine Change from Baseline, Mean (Week 8): -188.539 ng/mL
- Saliva Cotinine Change from Baseline, Median (Week 8): -194.655 ng/mL
- Saliva Cotinine Change from Baseline, LS Means (Week 8): -192.048 ng/mL
- Saliva Cotinine Change from Baseline, LS Means Difference from Placebo (Week 8): -78.107 ng/mL
- Saliva Cotinine Actual Value, Mean (Week 9): 121.622 ng/mL
- Saliva Cotinine Actual Value, Median (Week 9): 2.030 ng/mL
- Saliva Cotinine Change from Baseline, Mean (Week 9): -202.849 ng/mL
- Saliva Cotinine Change from Baseline, Median (Week 9): -199.000 ng/mL
- Saliva Cotinine Change from Baseline, LS Means (Week 9): -195.014 ng/mL
- Saliva Cotinine Change from Baseline, LS Means Difference from Placebo (Week 9): -86.006 ng/mL
- Saliva Cotinine Actual Value, Mean (Week 10): 127.718 ng/mL
- Saliva Cotinine Actual Value, Median (Week 10): 4.100 ng/mL
- Saliva Cotinine Change from Baseline, Mean (Week 10): -200.886 ng/mL
- Saliva Cotinine Change from Baseline, Median (Week 10): -197.500 ng/mL
- Saliva Cotinine Change from Baseline, LS Means (Week 10): -196.615 ng/mL
- Saliva Cotinine Change from Baseline, LS Means Difference from Placebo (Week 10): -62.680 ng/mL
- Saliva Cotinine Actual Value, Mean (Week 11): 137.834 ng/mL
- Saliva Cotinine Actual Value, Median (Week 11): 10.900 ng/mL
- Saliva Cotinine Change from Baseline, Mean (Week 11): -187.683 ng/mL
- Saliva Cotinine Change from Baseline, Median (Week 11): -177.500 ng/mL
- Saliva Cotinine Change from Baseline, LS Means (Week 11): -186.878 ng/mL
- Saliva Cotinine Change from Baseline, LS Means Difference from Placebo (Week 11): -63.262 ng/mL
- Saliva Cotinine Actual Value, Mean (Week 12): 157.889 ng/mL
- Saliva Cotinine Actual Value, Median (Week 12): 36.550 ng/mL
- Saliva Cotinine Change from Baseline, Mean (Week 12): -172.588 ng/mL
- Saliva Cotinine Change from Baseline, Median (Week 12): -178.000 ng/mL
- Saliva Cotinine Change from Baseline, LS Means (Week 12): -167.731 ng/mL
- Saliva Cotinine Change from Baseline, LS Means Difference from Placebo (Week 12): -57.329 ng/mL
- Saliva Cotinine Actual Value, Mean (Week 16): 181.742 ng/mL
- Saliva Cotinine Actual Value, Median (Week 16): 140.000 ng/mL
- Saliva Cotinine Change from Baseline, Mean (Week 16): -146.358 ng/mL
- Saliva Cotinine Change from Baseline, Median (Week 16): -116.000 ng/mL
- Saliva Cotinine Change from Baseline, LS Means (Week 16): -145.035 ng/mL
- Saliva Cotinine Change from Baseline, LS Means Difference from Placebo (Week 16): -54.792 ng/mL
